For 22 molecules, IC50 results are on record in patent US10577349B2 (Sanford Burnham Prebys Medical Discovery Institute, priority 2015, dated 2020).

Assay [1] has as its target HCV cap-independent translation. As to the kind of experiment: In vitro translation assay, FF-HCV-Ren construct, cap-independent (Ren luciferase). Type of assay: biochemical, rabbit reticulocyte lysates. An excerpt: (§1) The bicistronic dual-reporter constructs that contain the firefly luciferase (FF) sequence, followed by the (encephalomyocarditis virus) EmCV and Hepatitis C virus (HCV) IRES, respectively, and the Renilla reniformis (Ren) luciferase sequence, has been previously described (Bordeleau Me., et al. Functional characterization of IRESes by an inhibitor of the RNA helicase eIF4A. Nature chemical biology. 2006; 2:213-20). For measurement of translation from the FF-EmCV-Ren and FF-HCV-Ren constructs, rabbit reticulocyte lysates (RRL) (Life Technologies, Carlsbad, Calif., USA) and the Dual-Glo (Promega, Madison, Wis., USA) read-outs were chosen. Two μl rabbit reticulocyte lysates mixed with Translation Mix 20× (-Met) and Translation Mix 20× (-Leu) in a ratio of 1:1 were pre-incubated with test compounds in 1536-well plates for 1 h at room temperature. Then, translation was started by adding 0.1 μg RNA per well and incubated for 2 h at 30° C. After a short chill phase, 2.5 μl Dual-Glo reagent 1 was added to each well and incubated for 10 min before reading the FF luciferase activity with the ViewLux uHTS Microplate Imager (Perkin Elmer, Waltham, Mass., USA). Directly after, 2.5 μl Dual-Glo reagent 2 was dispensed to each well and incubated at room temperature for 10 min before reading the Ren luciferase activity on the ViewLux. To exclude the possibility that test compounds interfere with any of the luciferase activities, a counter assay was performed in which the compounds were added after the completion of the in vitro translation.

Another assay deals with A375. In words: 48 h Cytotoxicity A375. It is filed as cell-based. The conditions noted are these: Homo sapiens, A-375.
The target of assay [2] is HCV cap-dependent translation. As to the kind of experiment: In vitro translation assay, FF-HCV-Ren construct, cap-dependent (FF luciferase). It is filed as biochemical, rabbit reticulocyte lysates.
Text: as §1

For assay [3], the target named is EmCV Cap-dependent translation. In words: In vitro translation assay, FF-EmCV-Ren construct, cap-dependent (FF luciferase). Type of assay: biochemical, rabbit reticulocyte lysates.
Text: as §1

Assay [4] has as its target EmCV Cap-independent translation. As to the kind of experiment: In vitro translation assay, FF-EmCV-Ren construct, cap-independent (Ren luciferase). Type of assay: biochemical, rabbit reticulocyte lysates.
Text: as §1

Each structure is given as a SMILES string. Bounds are passed on as bounds.

As a reminder, the IC50 is the midpoint of a concentration-inhibition curve. Regarding `O=C(/C=C/c1ccncc1)c1c(-c2ccccc2)c2ccncc2[nH]c1=O` [Compound 23, 4-Phenyl-3-(3-pyridin-4-yl-acryloyl)-1H-[1,7]naphthyridin-2-one], the IC50 in assay [1] is above 20 µM; in the assay with A375, below 2 µM; in assay [2], above 20 µM; in assay [3], above 20 µM; in assay [4] it was 10 to 20 µM.

For the molecule `O=C(/C=C/c1nc2ccccc2[nH]1)c1c(-c2ccccc2)c2cnccc2[nH]c1=O` [Compound 24, 3-(3-1H-Benzoimidazol-2-yl-acryloyl)-4-phenyl-1H-[1,6]naphthyridin-2-one], the half-inhibitory concentration (IC50) in assay [1] was 10 to 20 µM; with A375, below 2 µM; in assay [2] it was 10 to 20 µM; in assay [3] it was 2 to 10 µM; in assay [4] it was 2 to 10 µM.

Turning to `O=C(/C=C/c1nc2ccccc2[nH]1)c1c(-c2ccccc2)c2cccnc2[nH]c1=O` [Compound 25, 3-(3-1H-Benzoimidazol-2-yl-acryloyl)-4-phenyl-1H-[1,8]naphthyridin-2-one], the IC50 in assay [1] is above 20 µM; with A375, 10 to 20 µM; in assay [2], 10 to 20 µM; in assay [3], 10 to 20 µM; in assay [4], 10 to 20 µM.

Turning to `O=C(/C=C/c1ccsc1)c1c(-c2ccccc2)c2cc(Cl)ccc2[nH]c1=O` [Compound 27, 6-Chloro-4-phenyl-3-(3-thiophen-3-yl-acryloyl)-1H-quinolin-2-one], the IC50 (in assay [1]; in the assay with A375; in assay [2]; in assay [3]; in assay [4]) was 2 to 10 µM each time.

With `O=C(/C=C/c1ccncc1)c1c(-c2ccccc2)c2cc(Cl)ccc2[nH]c1=O` [Compound 28, 6-Chloro-4-phenyl-3-(3-pyridin-4-yl-acryloyl)-1H-quinolin-2-one], the IC50 is 2 to 10 µM in assay [1]; below 2 µM with A375; 2 to 10 µM in assay [2]; 2 to 10 µM in assay [3]; 2 to 10 µM in assay [4].

In the case of `Cn1c(/C=C/C(=O)c2c(-c3ccccc3)c3cc(Cl)ccc3[nH]c2=O)cc2ccccc21` [Compound 29, 6-Chloro-3-[3-(1-methyl-1H-indol-2-yl)-acryloyl]-4-phenyl-1H-quinolin-2-one], the IC50 was above 20 µM in assay [1]; below 2 µM in the assay on A375; 10 to 20 µM in assay [2]; above 20 µM in assay [3]; above 20 µM in assay [4].

Turning to `Cn1ccc2cc(/C=C/C(=O)c3c(-c4ccccc4)c4cc(Cl)ccc4[nH]c3=O)ccc21` [Compound 30, 6-Chloro-3-[3-(1-methyl-1H-indol-5-yl)-acryloyl]-4-phenyl-1H-quinolin-2-one], the IC50 in assay [1] was above 20 µM; with A375, 2 to 10 µM; in assay [2] it was above 20 µM; in assay [3] it was above 20 µM; in assay [4], above 20 µM.

Take `O=C(/C=C/c1ccccc1)c1c(-c2ccccc2)c2cc(Cl)ccc2[nH]c1=O` [Compound 31, 6-Chloro-4-phenyl-3-(3-phenyl-acryloyl)-1H-quinolin-2-one]: the IC50 (in assay [1]; in the assay on A375; in assay [2]; in assay [3]; in assay [4]) was 2 to 10 µM in each case.

For the molecule `O=C(/C=C/c1cccnc1)c1c(-c2ccccc2)c2cc(Cl)ccc2[nH]c1=O` [Compound 32, 6-Chloro-4-phenyl-3-(3-pyridin-3-yl-acryloyl)-1H-quinolin-2-one], the IC50 was 2 to 10 µM in assay [1]; below 2 µM in the assay with A375; 2 to 10 µM in assay [2]; 2 to 10 µM in assay [3]; 2 to 10 µM in assay [4].

On to `O=C(/C=C/c1ccc(Cl)cc1)c1c(-c2ccccc2)c2cc(Cl)ccc2[nH]c1=O` [Compound 33, 6-Chloro-3-[3-(4-chloro-phenyl)-acryloyl]-4-phenyl-1H-quinolin-2-one], for which the IC50 (in assay [1]; with A375; in assay [2]; in assay [3]; in assay [4]) was 2 to 10 µM throughout.

For `Cc1ccc(/C=C/C(=O)c2c(-c3ccccc3)c3cc(Cl)ccc3[nH]c2=O)cc1` [Compound 34, 6-Chloro-4-phenyl-3-(3-p-tolyl-acryloyl)-1H-quinolin-2-one], the IC50 was in the range of 2 to 10 µM in assay [1]; 2 to 10 µM with A375; 2 to 10 µM in assay [2]; 10 to 20 µM in assay [3]; 2 to 10 µM in assay [4].

For the molecule `CN(C)c1ccc(/C=C/C(=O)c2c(-c3ccccc3)c3cc(Cl)ccc3[nH]c2=O)cc1` [Compound 35, 6-Chloro-3-[3-(4-dimethylamino-phenyl)-acryloyl]-4-phenyl-1H-quinolin-2-one], the IC50 (in assay [1]; in the assay on A375; in assay [2]; in assay [3]; in assay [4]) was above 20 µM in each case.

Take `O=C(/C=C/c1cc2ccccc2s1)c1c(-c2ccccc2)c2cc(Cl)ccc2[nH]c1=O` [Compound 36, 3-(3-Benzo[b]thiophen-2-yl-acryloyl)-6-chloro-4-phenyl-1H-quinolin-2-one]: the IC50 in assay [1] fell in the range of 2 to 10 µM; in the assay with A375 it was 2 to 10 µM; in assay [2] it was 2 to 10 µM; in assay [3] it was 2 to 10 µM; in assay [4], 10 to 20 µM.

As to `O=C(/C=C/c1cncnc1)c1c(-c2ccccc2)c2cc(Cl)ccc2[nH]c1=O` [Compound 37, 6-Chloro-4-phenyl-3-(3-pyrimidin-5-yl-acryloyl)-1H-quinolin-2-one], the IC50 (in assay [1]; with A375; in assay [2]; in assay [3]; in assay [4]) was 2 to 10 µM in each case.

Regarding `O=C(/C=C/c1ccc(C(F)(F)F)cc1)c1c(-c2ccccc2)c2cc(Cl)ccc2[nH]c1=O` [Compound 39, 6-Chloro-4-phenyl-3-[3-(4-trifluoromethyl-phenyl)-acryloyl]-1H-quinolin-2-one], the IC50 in assay [1] was in the range of 10 to 20 µM; in the assay on A375, 2 to 10 µM; in assay [2] it was 10 to 20 µM; in assay [3], 2 to 10 µM; in assay [4] it was 2 to 10 µM.

For `O=C(/C=C/c1ccc(F)c(F)c1)c1c(-c2ccccc2)c2cc(Cl)ccc2[nH]c1=O` [Compound 40, 6-Chloro-3-[3-(3,4-difluoro-phenyl)-acryloyl]-4-phenyl-1H-quinolin-2-one], the IC50 in assay [1] is 2 to 10 µM; in the assay with A375, below 2 µM; in assay [2], 2 to 10 µM; in assay [3] it was 2 to 10 µM; in assay [4] it was 2 to 10 µM.

As to `O=C(/C=C/c1ccc(F)cc1F)c1c(-c2ccccc2)c2cc(Cl)ccc2[nH]c1=O` [Compound 41, 6-Chloro-3-[3-(2,4-difluoro-phenyl)-acryloyl]-4-phenyl-1H-quinolin-2-one], the IC50 in assay [1] is 2 to 10 µM; in the assay on A375, below 2 µM; in assay [2], 2 to 10 µM; in assay [3], 2 to 10 µM; in assay [4] it was 2 to 10 µM.

Take `O=C(/C=C/c1c(F)cccc1F)c1c(-c2ccccc2)c2cc(Cl)ccc2[nH]c1=O` [Compound 42, 6-Chloro-3-[3-(2,6-difluoro-phenyl)-acryloyl]-4-phenyl-1H-quinolin-2-one]: the IC50 was 2 to 10 µM in assay [1]; below 2 µM with A375; 2 to 10 µM in assay [2]; 2 to 10 µM in assay [3]; 2 to 10 µM in assay [4].

`COc1ccc(/C=C/C(=O)c2c(-c3ccccc3)c3cc(Cl)ccc3[nH]c2=O)c(F)c1` [Compound 43, 6-Chloro-3-[3-(2-fluoro-4-methoxy-phenyl)-acryloyl]-4-phenyl-1H-quinolin-2-one]: the IC50 was 2 to 10 µM in assay [1]; below 2 µM in the assay with A375; 2 to 10 µM in assay [2]; above 20 µM in assay [3]; above 20 µM in assay [4].

For `Cn1ccnc1/C=C/C(=O)c1c(-c2ccccc2)c2cc(Cl)ccc2[nH]c1=O` [Compound 45, 6-Chloro-3-[3-(1-methyl-1H-imidazol-2-yl)-acryloyl]-4-phenyl-1H-quinolin-2-one], the IC50 fell in the range of 2 to 10 µM in assay [1]; 2 to 10 µM in the assay on A375; 10 to 20 µM in assay [2]; 2 to 10 µM in assay [3]; 2 to 10 µM in assay [4].

For `O=C(/C=C/c1cc(Br)cs1)c1c(-c2ccccc2)c2cc(Cl)ccc2[nH]c1=O` [Compound 46, 3-[3-(4-Bromo-thiophen-2-yl)-acryloyl]-6-chloro-4-phenyl-1H-quinolin-2-one], the 50% inhibitory concentration (IC50) (in assay [1]; in the assay with A375; in assay [2]; in assay [3]; in assay [4]) was 2 to 10 µM in each case.

On to `O=C(/C=C/c1ccc(Br)cn1)c1c(-c2ccccc2)c2cc(Cl)ccc2[nH]c1=O` [Compound 47, 3-[3-(5-Bromo-pyridin-2-yl)-acryloyl]-6-chloro-4-phenyl-1H-quinolin-2-one], for which the IC50 in assay [1] was 2 to 10 µM; in the assay on A375, below 2 µM; in assay [2] it was 2 to 10 µM; in assay [3] it was 2 to 10 µM; in assay [4], 2 to 10 µM.
